Measurements published in US8436049B2, “Uses of pentamidine and related compounds” (State of Oregon Acting By and Through the State Board of …, priority 2008, dated 2013).
“Also recorded” adds a separate entry of the source.

Legend:
[1] = system: cTNT splicing reporter in HeLa cells; assay: cTNT splicing reporter (exon 5 inclusion) in HeLa cells with or without CUG960 plasmid; format: cell-based; settings: for cTNT exon 5 inclusion: absence of CUG repeats; for Rescue of cTNT exon 5 inclusion: cells expressing 960 CUG repeats
Protocol: (§1) HeLa cells were grown in monolayers in DMEM with GlutaMAX™ (Gibco, Carlsbad, Calif.) and supplemented with 10% fetal bovine serum. Approximately 2.0 (±0.2)×10^5 cells were plated in 6 well plates and transfected 18-20 hours later at 70-90% confluency. 1 μg of plasmid was transfected into each well of cells, using 5 μL of […] (Invitrogen) according to the manufacturer's protocols. For co-transfection, 1 μg of total plasmid was transfected, at 500 ng of each construct. Test compounds were added 4 hours after transfection, when the media was changed. Cells were harvested 18-22 hours after transfection using TrypLE™ reagent (Gibco).
(§2) Immediately following harvesting, RNA was isolated from the cell pellets using an RNeasy® kit (Qiagen, Valencia, Calif.). 500 ng of isolated RNA was DNased with RQI DNase (Promega, Madison, Wis.) according to manufacture's protocol. 100 ng of DNAsed RNA was reverse transcribed with Superscript® II (Invitrogen, Carlsbad, Calif.) and a cTNT-specific reverse primer according to manufacturer's protocols. 30 ng of the reverse transcription reaction was subjected to 22-25 rounds of PCR amplification using cTNT specific primers spiked with a forward primer 5′ end-labeled with [γ-^32P]ATP. Similar methods were used to reverse transcribe and amplify IR and PLEKHH2. […] The resulting PCR products were run on a 6% (19:1) polyacrylamide denaturing gel. The gel was subsequently autoradiographed and quantitation of the radioactive bands was performed using ImageQuant® software.
(§3) The following primer pairs were used. For the cTNT minigene, the forward primer was […] (SEQ ID NO: 1), and the reverse primer was […] (SEQ ID NO: 2). For the IR minigene, the forward primer was […] (SEQ ID NO: 3), and the reverse primer was […] (SEQ ID NO: 4). The underlined sections are for cloning purposes. For the PLEKHH2 minigene, the forward primer was […] (SEQ ID NO: 5), and the reverse primer was […] (SEQ ID NO: 6).
The ability of pentamidine to alter the splicing defects observed in a cell-based model for DM was tested. This was accomplished in a system using cells transformed with a plasmid expressing 960 CUG repeats where the expression of these CUG repeats causes splicing defects similar to those observed in DM cells and DM subjects (Savkur et al., Nature Genet. 29:40-47, 2001).

[2] = system: IR splicing reporter in HeLa cells; assay: IR splicing reporter (exon 11 inclusion) in HeLa cells with or without CUG960 plasmid; format: cell-based; settings: for Rescue of IR reporter mis-splicing: cells expressing 960 CUG repeats
Protocol: as §1, §2, §3
The ability of pentamidine to alter the splicing defects observed in a cell-based model for DM was tested. […]

[3] = system: PLEKHH2 minigene in HeLa cells; assay: PLEKHH2 minigene splicing in HeLa cells; format: cell-based; settings: with or without CUG repeats
Protocol: as §1
Immediately following harvesting, RNA was isolated from the cell pellets using an RNeasy® kit (Qiagen, Valencia, Calif.). 500 ng of isolated RNA was DNased with RQI DNase (Promega, Madison, Wis.) according to manufacture's protocol. 100 ng of DNAsed RNA was reverse transcribed with Superscript® II (Invitrogen, Carlsbad, Calif.) and a cTNT-specific reverse primer according to manufacturer's protocols. 30 ng of the reverse transcription reaction was subjected to 22-25 rounds of PCR amplification using cTNT specific primers spiked with a forward primer 5′ end-labeled with [γ-^32P]ATP. […] The gel was subsequently autoradiographed and quantitation of the radioactive bands was performed using ImageQuant® software. […]

[4] = system: CUG960 RNA nuclear foci / MBNL-GFP in HeLa cells; assay: CUG foci formation and MBNL-GFP sequestration in HeLa cells transfected with MBNL-GFP and CUG960; format: cell-based; settings: 50 μM
Protocol: HeLa cells were plated in 6 well plates onto coverslips pre-treated with poly-L-lysine. Cells were transfected as described in Example 3. For transfection, 50 ng of MBNL-eGFP plasmid and 500 ng of CUG960 plasmid were transfected for each experiment. A total of 1 μg of plasmid DNA was transfected, with the additional amount being empty pcDNA3 vector. After transfection, pentamidine was added and the cells were fixed 16 hours later.
Cells were fixed for 15 min at room temperature (RT) with 4% paraformaldehyde and washed 5 times for 2 min in 1×PBS at RT. Cells were stored at 4° C., if not probed immediately. For fluorescence in situ hybridization, cells were permeabilized with 2% pre-chilled acetone in 1×PBS, at RT for 5 min. Cells were pre-washed with 30% formamide, 2×SSC for 10 min at RT. Cells were then probed for 2 hours at 37° C., with 1 ng/μl Cy3 CAG10 probe (Integrated DNA Technologies, Coralville, Iowa) in 30% formamide, 2×SSC, 0.02% BSA, 66 μg/ml yeast tRNA, 2 mM vanadyl complex. The cells were washed for 30 min in 30% formamide, 2×SSC at 42° C., then with 1×SSC for 30 min at RT. […] MBNL-eGFP was visualized using GFP fluorescence, exciting from 450-490 nm and visualizing at 520 nm. […]
Cells were scored by eye with the following criteria. […] 201 cells were scored for the MBNL-GFP and CUG960 double transfection. 242 cells treated with pentamidine (50 μM) were scored. […]

[5] = system: Clc-1 pre-mRNA splicing, HSA^LR transgenic mice; assay: Clc-1 exon 7a splicing in vastus muscle of HSA^LR mouse model of DM; format: in vivo; settings: intraperitoneal, saline HSA^LR control 46±6%, normal mice 94±1%
Protocol: (§4) Mouse handling and experimental procedures were conducted in accordance with the Association for Assessment and Accreditation of Laboratory Animal Care. HSA^LR transgenic mice in line 20b expressing human skeletal actin mRNA with ˜250 CUG repeats in the 3′ UTR were used (Mankodi et al., Science 289:1769-1772, 2000). Age- and gender-matched HSA^LR mice were injected intraperitoneally with pentamidine or saline (control). For a low-dose regimen, 25 mg/kg of pentamidine was administrated twice daily for 5 days. For a higher-dose regimen, 40 mg/kg of pentamidine was injected once daily for 7 days. Mice were sacrificed one day after the last injection, and vastus muscle was obtained for splicing analysis. […] PCR amplification was carried out for 22-24 cycles with the following primer pairs: Clc-1 forward, [sequence] (SEQ ID NO: 7), and reverse, [sequence] (SEQ ID NO: 8); Serca1 forward, [sequence] (SEQ ID NO: 9), and reverse, [sequence] (SEQ ID NO: 10). The PCR products were analyzed on agarose gels and scanned with a laser fluorimager (Typhoon, GE Healthcare, Piscataway, N.J.). Differences between the two groups were evaluated by Student's t-test.

[6] = system: Serca1 pre-mRNA splicing, HSA^LR transgenic mice; assay: Serca1 exon 22 splicing in vastus muscle of HSA^LR mouse model of DM; format: in vivo; settings: intraperitoneal, HSA^LR control 17±4%, normal 99.7±0.1%
Protocol: as §4

[7] = 25 mg/kg twice daily for 5 days

## N=C(N)c1ccc(OCCCCCOc2ccc(C(=N)N)cc2)cc1 [pentamidine]
[1]; 25 μM
  cTNT exon 5 inclusion: 62%
  Rescue of cTNT exon 5 inclusion: no effect
[1]; 50 μM
  Rescue of cTNT exon 5 inclusion: partial rescue; also recorded: partially rescue the cTNT mis-splicing
[1]; 75 μM
  cTNT exon 5 inclusion: 30%
  Rescue of cTNT exon 5 inclusion: full recovery
[1]; presence of the CUG960 construct
  Concentration giving complete rescue of cTNT missplicing: 75 µM
[2]; 25 μM
  Rescue of IR reporter mis-splicing: partially rescued
[2]; 50 μM
  Rescue of IR reporter mis-splicing: fully rescued; also recorded: fully rescue the IR mis-splicing
[2]; cells lacking the CUG repeats
  Effect on splicing of the IR reporter: did not affect the splicing of the IR reporter
[3]
  Effect on PLEKHH2 minigene splicing: Splicing was unchanged
[4]
  Characteristics of CUG RNA foci: the foci became increasingly more diffuse
  MBNL sequestration to foci: partially relieved in many cells
[5]; [7]
  Clc-1 exon 7a exclusion: 63±3%
[5]; 40 mg/kg once daily for 7 days
  Clc-1 exon 7a exclusion: 66±4%
[6]; [7]
  Serca1 exon 22 inclusion: 22±2%
[6]; 40 mg/kg once daily for 7 days
  Serca1 exon 22 inclusion: 40±4%
